Measured values as given in patent US20020137929A1, “1 - (3-heterocyclylphenyl) isothiourea, -isourea, -guanidine and -amidine herbicidal agents” (Intellectual Property Department, BASF Aktiengesellschaft, priority 1998, published 2002).

Columns and labels:
[1] = test system: SAGPY (Arrowhead (Pygmaea)); assay: Preemergence weed control under flooded paddy conditions; type: in vivo, Sagittaria pygmaea; conditions: rated 3-4 weeks after treatment
Method in brief: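 Visual injury scored 0-9 against control three to four weeks post-treatment, greenhouse-grown. Application: acetone/water (50/50) solutions dosed directly into flood water (1.5-3 cm over silt loam, planted top 0.5 cm), roughly 0.0313 to 0.500 kg/ha active ingredient.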

[2] = test system: TRZAWR (Wheat, Winter, cv Riband); assay: Preemergence herbicidal evaluation; type: in vivo, Triticum aestivum; conditions: rated 4-5 weeks after treatment
Method in brief: (§1)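 Each species is sown separately in potting soil over roughly an inch of soil before any emergence. The soil surface then receives an aqueous acetone spray delivering about 0.0156 to 0.500 kg/ha of compound. After four to five weeks, injury is scored from 0 to 9 relative to a control.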

ORYSAT (Rice, Tebonnet) = assay: Preemergence herbicidal evaluation; type: in vivo, Oryza sativa, (L.) Tebonnet; conditions: rated 4-5 weeks after treatment
Method in brief: as §1

CASOB (Sicklepod) = assay: Postemergence herbicidal evaluation; type: in vivo, Cassia obtusifolia; conditions: postemergence
Method in brief: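 First, seedlings were raised for around two weeks. Next, test material in 50/50 acetone/water containing 0.5% TWEEN 20 was sprayed through a nozzle at 40 psi, equivalent to about 0.0156–0.500 kg/ha. Finally, after 4–5 weeks in the greenhouse, plants were rated 0–9.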

[3] = test system: GLXMAW (Soybean, Williams); assay: Preemergence herbicidal evaluation; type: in vivo, Glycine max, (L.) Merr. cv Williams; conditions: rated 4-5 weeks after treatment
Method in brief: as §1

[4] = rate 0.1250 kg/ha, rating scale 0-9
[5] = rate 0.2500 kg/ha, rating scale 0-9

## CCCCOC(=O)CN1C(=O)CSC1=Nc1cc(-n2c(=O)cc(C(F)(F)F)n(C)c2=O)c(F)cc1Cl [Compound 111]
[1]; 0.0313 kg/ha
  SAGPY herbicidal effect rating: 3.0
[1]; 0.0625 kg/ha
  SAGPY herbicidal effect rating: 4.0
[1]; 0.1250 kg/ha
  SAGPY herbicidal effect rating: 5.0
[1]; 0.2500 kg/ha
  SAGPY herbicidal effect rating: 6.0
[2]; rate 0.0156 kg/ha
  Preemergence herbicidal rating TRZAWR: 0.0
[2]; rate 0.0313 kg/ha
  Preemergence herbicidal rating TRZAWR: 0.0
[2]; rate 0.0625 kg/ha
  Preemergence herbicidal rating TRZAWR: 0.0
[2]; rate 0.1250 kg/ha
  Preemergence herbicidal rating TRZAWR: 1.0
[2]; rate 0.2500 kg/ha
  Preemergence herbicidal rating TRZAWR: 4.0
ORYSAT (Rice, Tebonnet); rate 0.0156 kg/ha
  Preemergence herbicidal rating ORYSAT: 0.0
ORYSAT (Rice, Tebonnet); rate 0.0313 kg/ha
  Preemergence herbicidal rating ORYSAT: 0.0
ORYSAT (Rice, Tebonnet); rate 0.0625 kg/ha
  Preemergence herbicidal rating ORYSAT: 0.0
ORYSAT (Rice, Tebonnet); rate 0.1250 kg/ha
  Preemergence herbicidal rating ORYSAT: 1.0
ORYSAT (Rice, Tebonnet); rate 0.2500 kg/ha
  Preemergence herbicidal rating ORYSAT: 5.0
CASOB (Sicklepod); rate 0.0158 kg/ha
  herbicidal rating CASOB: 0.0
CASOB (Sicklepod); rate 0.0315 kg/ha
  herbicidal rating CASOB: 1.0
CASOB (Sicklepod); rate 0.0630 kg/ha
  herbicidal rating CASOB: 1.0
[3]; rate 0.0156 kg/ha
  Preemergence herbicidal rating GLXMAW: 1.0
[3]; rate 0.0313 kg/ha
  Preemergence herbicidal rating GLXMAW: 1.0
[3]; rate 0.0625 kg/ha
  Preemergence herbicidal rating GLXMAW: 1.0
[3]; rate 0.1250 kg/ha
  Preemergence herbicidal rating GLXMAW: 3.0
[3]; rate 0.2500 kg/ha
  Preemergence herbicidal rating GLXMAW: 4.0

## COCCOC(=O)CN1C(=O)CSC1=Nc1cc(-n2c(=O)cc(C(F)(F)F)n(C)c2=O)c(F)cc1Cl [Compound 107, 2-Methoxyethyl 2-{{2-chloro-5-[3,6-dihydro-3-methyl-2,6-dioxo-4-(trifluoromethyl)-1(2H)-pyrimidinyl]-4-fluorophenyl}imino}-4-oxo-3-thiazolidineacetate]
[1]; 0.0313 kg/ha
  SAGPY herbicidal effect rating: 0.0
[1]; 0.0625 kg/ha
  SAGPY herbicidal effect rating: 0.0
[1]; 0.1250 kg/ha
  SAGPY herbicidal effect rating: 0.0
[1]; 0.2500 kg/ha
  SAGPY herbicidal effect rating: 3.0
[2]; rate 0.0313 kg/ha
  Preemergence herbicidal rating TRZAWR: 0.0
[2]; rate 0.0625 kg/ha
  Preemergence herbicidal rating TRZAWR: 0.0
[2]; rate 0.1250 kg/ha
  Preemergence herbicidal rating TRZAWR: 0.0
[2]; rate 0.2500 kg/ha
  Preemergence herbicidal rating TRZAWR: 4.0
ORYSAT (Rice, Tebonnet); rate 0.0313 kg/ha
  Preemergence herbicidal rating ORYSAT: 0.0
ORYSAT (Rice, Tebonnet); rate 0.0625 kg/ha
  Preemergence herbicidal rating ORYSAT: 0.0
ORYSAT (Rice, Tebonnet); rate 0.1250 kg/ha
  Preemergence herbicidal rating ORYSAT: 0.0
ORYSAT (Rice, Tebonnet); rate 0.2500 kg/ha
  Preemergence herbicidal rating ORYSAT: 2.0
CASOB (Sicklepod); rate 0.0158 kg/ha
  herbicidal rating CASOB: 0.0
CASOB (Sicklepod); rate 0.0315 kg/ha
  herbicidal rating CASOB: 0.0
CASOB (Sicklepod); rate 0.0630 kg/ha
  herbicidal rating CASOB: 0.0
[3]; rate 0.0313 kg/ha
  Preemergence herbicidal rating GLXMAW: 0.0
[3]; rate 0.0625 kg/ha
  Preemergence herbicidal rating GLXMAW: 1.0
[3]; rate 0.1250 kg/ha
  Preemergence herbicidal rating GLXMAW: 2.0
[3]; rate 0.2500 kg/ha
  Preemergence herbicidal rating GLXMAW: 3.0

## COC(=O)CSCCN1C(=O)CSC1=Nc1cc(-n2c(=O)cc(C(F)(F)F)n(C)c2=O)c(F)cc1Cl [Compound 158, Methyl {{2-{2-{{2-chloro-5-[3,6-dihydro-3-methyl-2,6-dioxo-4-(trifluoromethyl)-1(2H)-pyrimidinyl]-4-fluorophenyl}imino}-4-oxo-3-thiazolidinyl}ethyl}-thio}acetate]
[1]; 0.0313 kg/ha
  herbicidal effect rating, SAGPY: 4.0
[1]; 0.0625 kg/ha
  herbicidal effect rating, SAGPY: 5.0
[1]; 0.1250 kg/ha
  herbicidal effect rating, SAGPY: 6.0
[1]; 0.2500 kg/ha
  herbicidal effect rating, SAGPY: 9.0
[2]; 0.0156 kg/ha
  Preemergence herbicidal rating TRZAWR: 1.0
[2]; 0.0313 kg/ha
  Preemergence herbicidal rating TRZAWR: 4.0
[2]; 0.0625 kg/ha
  Preemergence herbicidal rating TRZAWR: 5.0
[2]; [4]
  Preemergence herbicidal rating TRZAWR: 7.0
[2]; [5]
  Preemergence herbicidal rating TRZAWR: 7.0
ORYSAT (Rice, Tebonnet); 0.0156 kg/ha
  Preemergence herbicidal rating ORYSAT: 3.0
ORYSAT (Rice, Tebonnet); 0.0313 kg/ha
  Preemergence herbicidal rating ORYSAT: 4.0
ORYSAT (Rice, Tebonnet); 0.0625 kg/ha
  Preemergence herbicidal rating ORYSAT: 7.0
ORYSAT (Rice, Tebonnet); [4]
  Preemergence herbicidal rating ORYSAT: 7.0
ORYSAT (Rice, Tebonnet); [5]
  Preemergence herbicidal rating ORYSAT: 8.0
CASOB (Sicklepod); rate 0.0156 kg/ha
  herbicidal rating CASOB: 4.0
CASOB (Sicklepod); rate 0.0313 kg/ha
  herbicidal rating CASOB: 4.0
CASOB (Sicklepod); rate 0.0625 kg/ha
  herbicidal rating CASOB: 9.0
[3]; 0.0156 kg/ha
  Preemergence herbicidal rating GLXMAW: 1.0
[3]; 0.0313 kg/ha
  Preemergence herbicidal rating GLXMAW: 4.0
[3]; 0.0625 kg/ha
  Preemergence herbicidal rating GLXMAW: 6.0
[3]; [4]
  Preemergence herbicidal rating GLXMAW: 7.0
[3]; [5]
  Preemergence herbicidal rating GLXMAW: 9.0
